{"source": "patent US10159249B2", "about": "(BAYER CROPSCIENCE AKTIENGESELLSCHAFT, priority 2013, dated 2018)", "key": {"wild type soybean Merlin": {"system": "wild type soybean Merlin", "type": "in vivo", "details": "scored after 21 days"}, "PfHPPD (SEQ ID No 46)": {"target": "T1, PfHPPD (SEQ ID No 46) (Pseudomonas sp., UniProt P80064)", "T1 construct": "made in house; host or cells: E. coli K-12 BL21, vector pSE420(RI)NX-PfHPPD", "T1 sequence (P80064 other isoform, or with tags, fused parts or gaps with the stated changes)": "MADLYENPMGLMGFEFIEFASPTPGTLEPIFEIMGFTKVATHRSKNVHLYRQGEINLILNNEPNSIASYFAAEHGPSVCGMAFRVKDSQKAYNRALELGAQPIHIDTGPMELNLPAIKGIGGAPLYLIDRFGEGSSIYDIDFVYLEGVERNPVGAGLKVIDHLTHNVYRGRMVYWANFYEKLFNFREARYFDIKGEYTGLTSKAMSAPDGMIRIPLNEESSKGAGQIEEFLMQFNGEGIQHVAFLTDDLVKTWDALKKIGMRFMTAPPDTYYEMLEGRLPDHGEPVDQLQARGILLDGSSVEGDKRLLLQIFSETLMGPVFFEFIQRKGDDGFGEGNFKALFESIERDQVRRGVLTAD", "assay": "HPPD activity in presence of inhibitor, HGD assay", "type": "biochemical, Pseudomonas fluorescens", "procedure": "(§1) With the HGD assay HPPD activity was measured at room temperature by adding appropriate amounts of HPPD to a solution of 200 mM Tris-HCl pH 7.6, 10 mM ascorbate, 20 μM FeSO4, 650 units of catalase, 8 μg HGA dioxygenase (HGA: homogentisate) and 600 μM HPP in a total volume of 1 ml. Initial reaction rates were determined from the increase in absorbance at 318 nm due to the formation of maleylacetoacetate (ε318=11,900 M-1 cm-1).\n(§2) In cases, the symbol “>” is used this means that the value was far higher than the one indicated but could not be precisely calculated within in the range of concentration of inhibitor tested.\n(§3) In the 1st column of Table 1, the HPPD employed in the assay is named and in the 2nd column of Table 1, the corresponding SEQ ID No of present invention is disclosed."}, "FMP22 (SEQ ID No 11)": {"target": "FMP22 (SEQ ID No 11) (Rhodococcus jostii, UniProt A0ABU4CPN1)", "sequence (A0ABU4CPN1 1-401)": "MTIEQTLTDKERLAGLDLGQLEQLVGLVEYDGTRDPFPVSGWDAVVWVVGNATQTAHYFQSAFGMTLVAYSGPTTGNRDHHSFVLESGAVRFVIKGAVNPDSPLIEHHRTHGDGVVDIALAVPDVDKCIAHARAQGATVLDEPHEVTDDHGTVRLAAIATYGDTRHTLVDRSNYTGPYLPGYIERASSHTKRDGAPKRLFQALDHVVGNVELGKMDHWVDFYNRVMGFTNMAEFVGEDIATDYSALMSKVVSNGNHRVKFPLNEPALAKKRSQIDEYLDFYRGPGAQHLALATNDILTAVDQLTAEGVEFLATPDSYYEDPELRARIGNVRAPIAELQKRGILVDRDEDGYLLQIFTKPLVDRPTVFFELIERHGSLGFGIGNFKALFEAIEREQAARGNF", "assay": "HPPD activity in presence of inhibitor, HGD assay", "type": "biochemical, Rhodococcus sp. (strain RHA1), isolate ro03041", "details": "0.2 μM inhibitor", "procedure": "as §1, §2, §3"}, "Digitaria horizontalis": {"system": "Digitaria horizontalis", "assay": "Field trial, weed efficacy, post applied", "type": "in vivo", "details": "(A) 50 g ai/ha; application at 2 tillers; assessment 14 days after application"}, "Axmi428H (SEQ ID No 31)": {"target": "Axmi428H (SEQ ID No 31) (Comamonas testosteroni, UniProt A0A8B4SBH1)", "sequence (A0A8B4SBH1 1-373)": "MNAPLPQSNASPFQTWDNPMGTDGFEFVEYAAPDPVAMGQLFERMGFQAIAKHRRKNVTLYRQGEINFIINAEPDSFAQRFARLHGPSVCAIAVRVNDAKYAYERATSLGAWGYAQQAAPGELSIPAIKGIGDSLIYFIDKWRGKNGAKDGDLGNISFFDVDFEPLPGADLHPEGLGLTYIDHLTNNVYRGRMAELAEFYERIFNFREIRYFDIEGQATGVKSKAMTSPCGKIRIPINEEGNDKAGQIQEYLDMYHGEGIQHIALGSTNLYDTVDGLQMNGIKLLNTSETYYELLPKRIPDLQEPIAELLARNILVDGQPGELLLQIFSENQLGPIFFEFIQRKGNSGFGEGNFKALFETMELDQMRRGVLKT", "assay": "HPPD activity in presence of inhibitor, HGD assay", "type": "biochemical, Pseudomonas (=Comamonas) testosteroni", "details": "0.2 μM inhibitor", "procedure": "as §1, §2, §3"}, "[1]": {"system": "Ipomoea aristolochiaefolia", "details": "application at 6 leaf stage, assessment 14 days after application"}, "[2]": {"system": "maize transgenic T0 events expressing PfHPPDEvo41", "assay": "Greenhouse trial, maize T0 plants, leaf area damage", "type": "in vivo", "details": "for number of events, herbicide tolerance class 0 (41%-100% damaged leaf area) / number of events, herbicide tolerance class 1 (16%-40% damaged leaf area) / number of events, herbicide tolerance class 2 (6%-15% damaged leaf area) / number of events, herbicide tolerance class 3 (0%-5% damaged leaf area): maize PfHPPDEvo41, six days after application", "procedure": "(§4) Regenerated T0 events from tissue culture were transplanted into two inch square pots with synthetic soil (Fafard® Mix) and controlled-released fertilizer (Haifa Multicote™; polymer-coated controlled-release fertilizer, NPK Pro 18-6-12+Micronutrients) and cultivated in the greenhouse (GH) under supplementary high pressure sodium light for 12 days at a maximum of 30° C. during the day and a minimum of 22° C. at night. Fully recovered plants were transferred into five inch square pots filled with synthetic soil and control released fertilizer under the same environmental conditions. […] All herbicide treatments were conducted in a DeVries Tracker Sprayer system with standard application protocols, which are well known in the art. As a spray control T0 events have been sprayed with the adjunvant mixture lacking the herbicide.\n(§5) Table 2 summarizes results of transgenic maize plants expressing mutants of the Pseudomonas fluorescens HPPD protein comprising an E (Glu)->P (Pro) replacement at position 335, a G (Gly)->W (Trp) replacement at position 336, a K (Lys)->A (Ala) replacement at position 339 and an A (Ala)->Q (Gln) replacement at position 340 (named PfHPPDEvo41 and being disclosed under SEQ ID No:16 in PCT/US2013/59598 (WO2014/043435) and being disclosed in present application under SEQ ID No. 29), or a mutated sequence of the Pseudomonas (=Comamonas) testosteroni HPPD protein comprising a E (Glu)->P (Pro) replacement at position 351, a G (Gly)->W (Trp) replacement at position 352, a K (Lys)->A (Ala) replacement at position 355 and an A (Ala)->Q (Gln) replacement at position 356 (named Axmi428H-Evo41 and being disclosed under SEQ ID No 56 in PCT/US2013/59598 (WO2014/043435) and being disclosed in present application as the HPPD protein sequence under SEQ ID No 33) or a mutated sequence of the Pseudomonas agarici HPPD protein comprising a E (Glu)->P (Pro) replacement at position 335, a G (Gly)->W (Trp) replacement at position 336, a K (Lys)->A (Ala) replacement at position 339 and an A (Ala)->Q (Gln) replacement at position 340 (named Axmi309H-EVO41 and being disclosed under SEQ ID No 54 in PCT/US2013/59598 (WO2014/043435) and being disclosed in present application as the HPPD protein sequence under SEQ ID No 37).\n(§6) A rating of “1” was assigned to plants having a moderate tolerance with 16% to 40% damage of total leaf area. A rating of “2” was assigned to plants with good tolerance within the range of 6% to 15% damage of total leaf area."}, "[3]": {"system": "maize transgenic T0 events expressing Axmi428H-Evo41", "assay": "Greenhouse trial, maize T0 plants, leaf area damage", "type": "in vivo", "details": "for number of events, herbicide tolerance class 0 (41%-100% damaged leaf area) / number of events, herbicide tolerance class 1 (16%-40% damaged leaf area) / number of events, herbicide tolerance class 2 (6%-15% damaged leaf area) / number of events, herbicide tolerance class 3 (0%-5% damaged leaf area): maize Axmi428H-Evo41, six days after application", "procedure": "as §4, §5, §6"}, "[4]": {"details": "soybean Merlin (wt), 6.25 g AI/ha"}}, "note": "Read-outs that look alike come from different tables or passages of the source.", "data": [{"smiles": "CSc1c(C(F)(F)F)ccc(C(=O)Nc2nnnn2C)c1Cl", "values": [{"measurement": "number of events, herbicide tolerance class 0 (41%-100% damaged leaf area)", "setting": "wild type soybean Merlin; [4]", "value": 4}, {"measurement": "number of events, herbicide tolerance class 1 (16%-40% damaged leaf area)", "setting": "wild type soybean Merlin; [4]", "value": 0}, {"measurement": "number of events, herbicide tolerance class 2 (6%-15% damaged leaf area)", "setting": "wild type soybean Merlin; [4]", "value": 0}, {"measurement": "number of events, herbicide tolerance class 3 (0%-5% damaged leaf area)", "setting": "wild type soybean Merlin; [4]", "value": 0}, {"measurement": "number of events, herbicide tolerance class 0 (41%-100% damaged leaf area)", "setting": "wild type soybean Merlin; soybean Merlin, 25 g AI/ha", "value": 4}, {"measurement": "number of events, herbicide tolerance class 1 (16%-40% damaged leaf area)", "setting": "wild type soybean Merlin; soybean Merlin, 25 g AI/ha", "value": 0}, {"measurement": "number of events, herbicide tolerance class 2 (6%-15% damaged leaf area)", "setting": "wild type soybean Merlin; soybean Merlin, 25 g AI/ha", "value": 0}, {"measurement": "number of events, herbicide tolerance class 3 (0%-5% damaged leaf area)", "setting": "wild type soybean Merlin; soybean Merlin, 25 g AI/ha", "value": 0}, {"measurement": "inhibition at 0.2 µM", "setting": "PfHPPD (SEQ ID No 46); 0.2 μM inhibitor", "value": 76, "unit": "%"}, {"measurement": "IC50", "setting": "PfHPPD (SEQ ID No 46); room temperature, 600 μM HPP, molar concentration, read-out: pI50 (converted)", "value": 100, "unit": "nM"}, {"measurement": "inhibition at 0.2 µM", "setting": "FMP22 (SEQ ID No 11)", "value": 0, "unit": "%"}, {"measurement": "Efficacy (%) Digitaria horizontalis", "setting": "Digitaria horizontalis", "value": 70, "unit": "%"}, {"measurement": "inhibition at 0.2 µM", "setting": "Axmi428H (SEQ ID No 31)", "value": 71, "unit": "%"}, {"measurement": "Efficacy (%) Ipomoea aristolochiaefolia", "setting": "[1]; (A) 25 g ai/ha", "value": 10, "unit": "%"}, {"measurement": "Efficacy (%) Ipomoea aristolochiaefolia", "setting": "[1]; (A) 50 g ai/ha", "value": 15, "unit": "%"}, {"measurement": "share of tested events with high tolerance (5% or less bleached leaf area)", "setting": "[2]; maize PfHPPDEvo41 (n=21), 100 g AI/ha", "value": "~70", "unit": "%"}, {"measurement": "number of events, herbicide tolerance class 0 (41%-100% damaged leaf area)", "setting": "[2]; 25 g AI/ha", "value": 6}, {"measurement": "number of events, herbicide tolerance class 1 (16%-40% damaged leaf area)", "setting": "[2]; 25 g AI/ha", "value": 0}, {"measurement": "number of events, herbicide tolerance class 2 (6%-15% damaged leaf area)", "setting": "[2]; 25 g AI/ha", "value": 1}, {"measurement": "number of events, herbicide tolerance class 3 (0%-5% damaged leaf area)", "setting": "[2]; 25 g AI/ha", "value": 28}, {"measurement": "number of events, herbicide tolerance class 0 (41%-100% damaged leaf area)", "setting": "[2]; 50 g AI/ha", "value": 1}, {"measurement": "number of events, herbicide tolerance class 1 (16%-40% damaged leaf area)", "setting": "[2]; 50 g AI/ha", "value": 0}, {"measurement": "number of events, herbicide tolerance class 2 (6%-15% damaged leaf area)", "setting": "[2]; 50 g AI/ha", "value": 2}, {"measurement": "number of events, herbicide tolerance class 3 (0%-5% damaged leaf area)", "setting": "[2]; 50 g AI/ha", "value": 28}, {"measurement": "number of events, herbicide tolerance class 0 (41%-100% damaged leaf area)", "setting": "[2]; 100 g AI/ha", "value": 4}, {"measurement": "number of events, herbicide tolerance class 1 (16%-40% damaged leaf area)", "setting": "[2]; 100 g AI/ha", "value": 0}, {"measurement": "number of events, herbicide tolerance class 2 (6%-15% damaged leaf area)", "setting": "[2]; 100 g AI/ha", "value": 2}, {"measurement": "number of events, herbicide tolerance class 3 (0%-5% damaged leaf area)", "setting": "[2]; 100 g AI/ha", "value": 15}, {"measurement": "share of tested events with high tolerance (5% or less bleached leaf area)", "setting": "[3]; maize Axmi428H-Evo41 (n=29), 100 g AI/ha", "value": "~70", "unit": "%"}, {"measurement": "number of events, herbicide tolerance class 0 (41%-100% damaged leaf area)", "setting": "[3]; 50 g AI/ha", "value": 0}, {"measurement": "number of events, herbicide tolerance class 1 (16%-40% damaged leaf area)", "setting": "[3]; 50 g AI/ha", "value": 0}, {"measurement": "number of events, herbicide tolerance class 2 (6%-15% damaged leaf area)", "setting": "[3]; 50 g AI/ha", "value": 0}, {"measurement": "number of events, herbicide tolerance class 3 (0%-5% damaged leaf area)", "setting": "[3]; 50 g AI/ha", "value": 7}, {"measurement": "number of events, herbicide tolerance class 0 (41%-100% damaged leaf area)", "setting": "[3]; 100 g AI/ha", "value": 3}, {"measurement": "number of events, herbicide tolerance class 1 (16%-40% damaged leaf area)", "setting": "[3]; 100 g AI/ha", "value": 4}, {"measurement": "number of events, herbicide tolerance class 2 (6%-15% damaged leaf area)", "setting": "[3]; 100 g AI/ha", "value": 1}, {"measurement": "number of events, herbicide tolerance class 3 (0%-5% damaged leaf area)", "setting": "[3]; 100 g AI/ha", "value": 21}]}]}
